Laboratory results taken from the Deep4Chem optical property database.
Values joined by “and” are separate entries in the source; they are usually repeats but may differ in a detail not shown here. Equal values may be shown once. One block for each compound: values may come before it.

Assay: solvent given as SMILES

SMILES: CC(=O)Nc1ccc2c3c(cccc13)C(=O)c1ccccc1-2
emission maximum (in CC#N): 539.96 nm
emission maximum (in CC(C)=O): 526.04 nm
emission maximum (in CC(C)O): 567.86 nm
emission maximum (in CCCCOCCCC): 507.1 nm
emission maximum (in CCOC(C)=O): 520.02 nm
emission maximum (in CCOCC): 518.13 nm
emission maximum (in CO): 573.07 nm
emission maximum (in Cc1ccccc1): 516 nm
emission maximum (in Clc1ccccc1): 520.02 nm
emission maximum (in N#Cc1ccccc1): 527.98 nm
emission maximum (in O=C1CCCCC1): 526.87 nm

SMILES: CCCCCCCCCC1(CCCCCCCCC)c2cc(C#Cc3ccc(C#Cc4ccc(N(CCCCCC)CCCCCC)cc4)cc3)ccc2-c2ccc(C#Cc3ccc(C#Cc4ccc(N(CCCCCC)CCCCCC)cc4)cc3)cc21
emission maximum (in Cc1ccccc1): 433 nm

SMILES: C/C(=C\c1ccc(C)cc1)c1nc2ccccc2o1
emission maximum (in C1CCCCC1): 370 nm
emission maximum (in CO): 380 nm

SMILES: N#Cc1c(-n2c3ccc(Cl)cc3c3cc(Cl)ccc32)c(C#N)c(-n2c3ccc(Cl)cc3c3cc(Cl)ccc32)c(-n2c3ccc(Cl)cc3c3cc(Cl)ccc32)c1-n1c2ccc(Cl)cc2c2cc(Cl)ccc21
emission maximum (in Cc1ccccc1): 518 nm

SMILES: c1ccc2c(c1)Sc1ccccc1N2c1ccc2c(c1)C1(CCCC1)c1cc(N3c4ccccc4Sc4ccccc43)ccc1-2
emission maximum (in Cc1ccccc1): 491 nm

SMILES: c1cc2cc(c1)c1ccc3ccc4ccc(cc4c3c1)c1ccc3ccc4ccc(cc4c3c1)c1cccc2c1
emission maximum (in Cc1ccccc1): 414 nm

SMILES: Cc1ccc(-c2cc(-c3ccccc3Cl)c3c(N)nc(N4CCCC4)c(C#N)c3n2)cc1
emission maximum (in CC#N): 526 nm
emission maximum (in CC(C)=O): 522 nm
emission maximum (in CC(C)O): 516 nm
emission maximum (in CO): 525 nm
emission maximum (in ClC(Cl)Cl): 508 nm
emission maximum (in ClCCl): 514 nm
emission maximum (in c1ccccc1): 512 nm

SMILES: CC1=[N+]2C(=C(c3c4ccccc4cc4ccccc34)c3ccc(C)n3[B-]2(F)F)C=C1
emission maximum (in C1CCOC1): 528 nm
emission maximum (in CC#N): 524 nm
emission maximum (in CCCCCC): 524 nm and 528 nm
emission maximum (in CCO): 524 nm
emission maximum (in CN(C)C=O): 531 nm
emission maximum (in CO): 527 nm
emission maximum (in CS(C)=O): 529 nm
emission maximum (in Cc1ccccc1): 530 nm
emission maximum (in ClC(Cl)Cl): 526 nm
emission maximum (in ClCCl): 528 nm

SMILES: C[Si]1(C)C2=C(c3ccc(N(c4ccccc4)c4ccccc4)cc31)P(=O)(c1ccccc1)c1ccccc12 (stereo not drawn)
emission maximum (in CC#N): 611 nm
emission maximum (in CO): 624 nm
emission maximum (in Cc1ccccc1): 544 nm

SMILES: COc1ccc2c(c1)-c1ccccc1C2=O
emission maximum (in C1CCCCC1): 472 nm
emission maximum (in CC#N): 510 nm
emission maximum (in CCO): 549 nm

SMILES: CN(C)c1ccc(/C=C/c2nc(/C=C/c3ccc(N(c4ccccc4)c4ccccc4)cc3)cc(/C=C/c3ccc(N(c4ccccc4)c4ccccc4)cc3)n2)cc1
emission maximum (in C1CCOC1): 512 nm
emission maximum (in CC#N): 574 nm
emission maximum (in CC(C)=O): 552 nm
emission maximum (in CCCCCCC): 460 nm
emission maximum (in CS(C)=O): 577 nm
emission maximum (in Cc1ccccc1): 495 nm
emission maximum (in ClCCl): 577 nm

SMILES: CN(C)c1ccc(C2=Nc3sc4cc(C(F)(F)F)ccc4[n+]3[B-](F)(F)O2)cc1
emission maximum (in C1CCOC1): 486 nm
emission maximum (in CC#N): 500 nm
emission maximum (in CC(C)=O): 495 nm
emission maximum (in Cc1ccccc1): 460 nm
emission maximum (in ClCCl): 478 nm

SMILES: c1ccc(-n2c(-c3cccc4ccccc34)nc3c4cccc5ccc6cccc(c6c54)c32)cc1
emission maximum (in C1CCOC1): 422.46 nm
emission maximum (in CCCCCC): 384 nm
emission maximum (in CS(C)=O): 436 nm
emission maximum (in Cc1ccccc1): 420 nm
emission maximum (in ClCCl): 424.78 nm

SMILES: O=C(O)C1=C/C(=C/C=[N+]2/c3cc(O)c(C[C@@H]4O[C@H](CO)[C@@H](O)C(O)[C@H]4O)cc3C[C@H]2C(=O)O)C[C@H](C(=O)O)N1 (stereo partly drawn)
emission maximum (in CO): 611 nm
emission maximum (in O): 641 nm
emission maximum (in OCCO): 608 nm
emission maximum (in [2H]O[2H]): 641 nm

SMILES: O=S(=O)(c1ccc(N2c3ccccc3N(c3ccccc3)c3ccccc32)cc1)c1ccc(N2c3ccccc3N(c3ccccc3)c3ccccc32)cc1
emission maximum (in Cc1ccccc1): 577 nm
emission maximum (in c1cc(-n2c3ccccc3c3ccccc32)cc(-n2c3ccccc3c3ccccc32)c1): 580 nm

SMILES: c1ccc2c(c1)Cc1ccccc1N2c1c2ccccc2cc2ccccc12
emission maximum (in Cc1ccccc1): 535 nm

SMILES: Nc1ccc2cc(-c3ccc(C(F)(F)F)cc3)oc(=O)c2c1
emission maximum (in CC(C)=O): 439 nm
emission maximum (in CCCCCC): 418 nm
emission maximum (in CCCCO): 460 nm
emission maximum (in CCCO): 459 nm
emission maximum (in CCO): 460 nm
emission maximum (in CCOC(C)=O): 436 nm
emission maximum (in CN(C)C=O): 448 nm
emission maximum (in CO): 461 nm
emission maximum (in ClC(Cl)Cl): 438 nm

SMILES: CCCCOc1ccc2cc(-c3ccc(C)cc3)c(=O)oc2c1
emission maximum (in C1CCOC1): 423 nm
emission maximum (in CCCCCC): 416 nm
emission maximum (in CCO): 429 nm
emission maximum (in CS(C)=O): 431 nm

SMILES: COc1cc2c(cc1F)c(=O)c1cc(F)c(OC)cc1n2Cc1ccccc1
emission maximum (in CCO): 416 nm

SMILES: COc1ccc2oc(-c3cc4cc(OC)ccc4oc3=O)cc2c1
emission maximum (in CC#N): 480 nm
emission maximum (in CCOC(C)=O): 443 nm
emission maximum (in CS(C)=O): 484 nm
emission maximum (in Cc1ccccc1): 446 nm

SMILES: CCCCOc1ccc(-c2cc3c(o2)c(-c2ccc(OCCCC)cc2)c2n3[B-](F)(F)[N+]3=Cc4c(-c5ccc(OCCCC)cc5)c5oc(-c6ccc(OCCCC)cc6)cc5n4[B-](F)(F)[N+]3=C2)cc1
emission maximum (in C1CCOC1): 659 nm
emission maximum (in CN(C)C=O): 667 nm
emission maximum (in CS(C)=O): 672 nm
emission maximum (in Cc1ccccc1): 660 nm
emission maximum (in ClC(Cl)Cl): 660 nm
emission maximum (in ClCCl): 661 nm

SMILES: N#Cc1cc(C#N)c(-n2c3ccccc3c3cc(-c4cccc5c4c4ccccc4n5-c4cc(-n5c6ccccc6c6ccccc65)c(C#N)cc4C#N)ccc32)cc1-n1c2ccccc2c2ccccc21
emission maximum (in O=P(c1ccccc1)(c1ccccc1)c1ccccc1Oc1ccccc1P(=O)(c1ccccc1)c1ccccc1): 448 nm

SMILES: CCN1c2ccc(/C=N/Nc3ccccn3)cc2Sc2cc(-c3ccccc3)ccc21
emission maximum (in C1CCOC1): 487 nm
emission maximum (in CS(C)=O): 503 nm
emission maximum (in Cc1ccccc1): 485 nm
emission maximum (in ClCCl): 497 nm

SMILES: NS(=O)(=O)c1ccc(N2N=C(c3ccc(O)cc3)CC2c2ccc(Cl)cc2)cc1 (stereo not drawn)
emission maximum (in C1CCOC1): 418 nm
emission maximum (in C1COCCO1): 417 nm
emission maximum (in CC#N): 417 nm
emission maximum (in CC(C)O): 423 nm
emission maximum (in CCO): 427 nm
emission maximum (in CCOC(C)=O): 416 nm
emission maximum (in CN(C)C=O): 422 nm
emission maximum (in CO): 431 nm
emission maximum (in CS(C)=O): 424 nm
emission maximum (in O): 448 nm

SMILES: CCOC(=O)CCCCCn1c2ccc(N)cc2c(=O)c2cc(N)ccc21
emission maximum (in O): 547 nm

SMILES: CC(O)CC1=N/C(=C\c2cccc(N(C)C)c2)C(=O)N1C (stereo not drawn)
emission maximum (in C1CCOC1): 585 nm
emission maximum (in CC#N): 642 nm
emission maximum (in CCCCCC): 506 nm

SMILES: FC(F)(F)c1ccc(/C=C/c2ccc(-c3nnc(-c4ccc(-c5cc6ccccc6s5)cc4)o3)cc2)cc1
emission maximum (in CC#N): 388 nm
emission maximum (in CC(C)=O): 390 nm
emission maximum (in CCCCCCCC): 387 nm
emission maximum (in CCCCCCCCCCO): 395 nm
emission maximum (in CCCCCCCCO): 394 nm
emission maximum (in CCCCCO): 393 nm
emission maximum (in CCCO): 391 nm
emission maximum (in CN(C)C=O): 416 nm
emission maximum (in CO): 389 nm
emission maximum (in CS(C)=O): 397 nm

SMILES: Cc1cc(-n2c3ccccc3c3cc(C#N)ccc32)ccc1-c1ccc(S(=O)(=O)c2ccccc2)cc1C
emission maximum (in C1CCOC1): 369.19 nm
emission maximum (in CC#N): 369.19 nm
emission maximum (in Cc1ccccc1): 352 nm
emission maximum (in ClCCl): 369.19 nm

Next, values leading:

emission maximum (in C1CCCCC1): 340 nm
emission maximum (in ClCCl): 356 nm
SMILES: c1ccc2c(c1)Cc1cc3c(cc1-2)Cc1ccccc1-3

emission maximum (in ClC(Cl)Cl): 670 nm
SMILES: CCCCCCCCc1ccc(-c2c3cc(-c4cc(CCCCCCCC)c(-c5ccc(-c6sc(/C=C7\SC(=S)N(CC)C7=O)cc6CCCCCCCC)s5)s4)sc3c(-c3ccc(CCCCCCCC)s3)c3cc(-c4cc(CCCCCCCC)c(-c5ccc(-c6sc(/C=C7\SC(=S)N(CC)C7=O)cc6CCCCCCCC)s5)s4)sc23)s1

emission maximum (in ClCCl): 570 nm
SMILES: COC(=O)/C=C/C1=CC2=C(c3c(C)cc(C)cc3C)c3cccn3[B-](F)(F)[N+]2=C1

emission maximum (in C1CCOC1): 555 nm
SMILES: c1cc2ccc1-c1ccc(cc1)-c1sc(c3c1OCCO3)-c1ccc(cc1)-c1ccc(cc1)-c1sc(c3c1OCCO3)-c1ccc(cc1)-c1ccc(cc1)-c1sc-2c2c1OCCO2

emission maximum (in CS(C)=O): 414 nm
emission maximum (in O): 428 nm
SMILES: CCCCCn1c2ccccc2c(=O)c2ccccc21

emission maximum (in CC#N): 452 nm
SMILES: Cc1cccc2nc3[nH]c(=O)[nH]c(=O)c3nc12

emission maximum (in CO): 556 nm
SMILES: CCOC(=O)CCCCCn1c2ccc(Cl)cc2c(=O)c2cc3c(cc21)c(=O)c1cc(Cl)ccc1n3CCCCCC(=O)OCC

emission maximum (in C1CCCCC1): 468 nm
emission maximum (in CC#N): 497 nm
emission maximum (in ClC(Cl)Cl): 496 nm
SMILES: c1cc2ccc1CCCc1ccc(c3nsnc13)CCC2

emission maximum (in ClC(Cl)Cl): 515 nm
SMILES: CN1CCc2cc(C3=Cc4cccc[n+]4[B-](F)(F)O3)ccc21

emission maximum (in ClCCl): 447 nm
SMILES: CCCCCCn1c2ccccc2c2cc(-c3ccc(-c4cc(-c5ccccn5)nc(-c5ccccn5)c4)cc3)ccc21

emission maximum (in ClC(Cl)Cl): 374 nm
SMILES: CCCCc1cc(-c2cccc(COC)c2)oc1-c1cccc(-c2cc(CCCC)c(-c3cccc(-c4cc(CCCC)c(-c5cccc(-c6oc(-c7cccc(-c8oc(-c9cccc(-c%10oc(-c%11cccc(COC)c%11)cc%10CCCC)c9)cc8CCCC)c7)cc6CCCC)c5)o4)c3)o2)c1

emission maximum (in C1CCCCC1): 459.98 nm
emission maximum (in C1CCOC1): 483.09 nm
emission maximum (in CN(C)C=O): 501 nm
emission maximum (in CO): 510.99 nm
emission maximum (in ClC(Cl)Cl): 490.92 nm
emission maximum (in c1ccccc1): 471.03 nm
SMILES: CC1(C)CCc2c(c3ccccc3c3nc4ccccc4nc23)O1

emission maximum (in CO): 395 nm
SMILES: Cc1ccc(-c2nc(-c3ccc(O)cc3)[nH]c2-c2ccc(C)cc2)cc1

emission maximum (in CCO): 654 nm
emission maximum (in CS(C)=O): 655 nm
emission maximum (in O): 722 nm
SMILES: CC1(C)C(/C=C/C=C/c2cc3ccc(O)cc3oc2=O)=[N+](CCCS(=O)(=O)[O-])c2ccc(S(=O)(=O)O)cc21

emission maximum (in O): 399 nm
SMILES: Cc1cc(-c2ccc(-c3n(C)c4ccccc4[n+]3C)cc2)ccc1-c1ccc(-c2n(C)c3ccccc3[n+]2C)cc1

emission maximum (in ClCCl): 499 nm
SMILES: Cc1c(C(=O)c2c(F)cc(F)cc2F)c2ccc3cccc4c5cccc6ccc1c(c65)c2c34
